Test: xn = mol fraction of the nth substance listed
Conditions: 101 kPa, Liquid; for speed of sound: Single path-length method

COC(C)(C)C [2-methoxy-2-methylpropane] + Cc1ccccc1
Conditions | mass density [kg/m3] | speed of sound [m/s]
305.65 K, x1 = 0.053 | 848.195 | –
305.65 K, x1 = 0.116 | 840.022 | –
305.65 K, x1 = 0.199 | 829.282 | –
305.65 K, x1 = 0.301 | 816.062 | –
305.65 K, x1 = 0.371 | 807.159 | –
305.65 K, x1 = 0.463 | 795.249 | –
305.65 K, x1 = 0.61 | 776.592 | –
305.65 K, x1 = 0.688 | 766.747 | –
305.65 K, x1 = 0.797 | 752.961 | –
305.65 K, x1 = 0.902 | 739.7 | –
305.65 K, x1 = 0.943 | 734.343 | –
305.65 K, x1 = 1 | 726.444 | –
308.15 K, x1 = 0.053 | 845.842 | 1245.8
308.15 K, x1 = 0.116 | 837.654 | 1228.3
308.15 K, x1 = 0.199 | 826.891 | 1207.5
308.15 K, x1 = 0.301 | 813.64 | 1180.9
308.15 K, x1 = 0.371 | 804.72 | 1161.8
308.15 K, x1 = 0.463 | 792.78 | 1137.8
308.15 K, x1 = 0.61 | 774.07 | 1098.8
308.15 K, x1 = 0.688 | 764.201 | 1077.9
308.15 K, x1 = 0.797 | 750.369 | 1049
308.15 K, x1 = 0.902 | 737.069 | 1020.4
308.15 K, x1 = 0.943 | 731.692 | 1008
308.15 K, x1 = 1 | 723.763 | 990.99
310.65 K, x1 = 0.053 | 843.486 | 1235.2
310.65 K, x1 = 0.116 | 835.279 | 1217.6
310.65 K, x1 = 0.199 | 824.494 | 1196.7
310.65 K, x1 = 0.301 | 811.214 | 1170.1
310.65 K, x1 = 0.371 | 802.273 | 1150.9
310.65 K, x1 = 0.463 | 790.303 | 1126.8
310.65 K, x1 = 0.61 | 771.541 | 1087.7
310.65 K, x1 = 0.688 | 761.642 | 1066.9
310.65 K, x1 = 0.797 | 747.769 | 1037.9
310.65 K, x1 = 0.902 | 734.423 | 1009.1
310.65 K, x1 = 0.943 | 729.029 | 996.73
310.65 K, x1 = 1 | 721.069 | 979.62
313.15 K, x1 = 0.053 | 841.124 | 1224.5
313.15 K, x1 = 0.116 | 832.902 | 1207
313.15 K, x1 = 0.199 | 822.092 | 1186
313.15 K, x1 = 0.301 | 808.78 | 1159.3
313.15 K, x1 = 0.371 | 799.819 | 1140.1
313.15 K, x1 = 0.463 | 787.815 | 1115.9
313.15 K, x1 = 0.61 | 769.004 | 1076.7
313.15 K, x1 = 0.688 | 759.075 | 1055.9
313.15 K, x1 = 0.797 | 745.157 | 1026.8
313.15 K, x1 = 0.902 | 731.765 | 997.95
313.15 K, x1 = 0.943 | 726.353 | 985.49
313.15 K, x1 = 1 | 718.357 | 968.16
315.65 K, x1 = 0.053 | 838.757 | 1214
315.65 K, x1 = 0.116 | 830.517 | 1196.4
315.65 K, x1 = 0.199 | 819.682 | 1175.3
315.65 K, x1 = 0.301 | 806.341 | 1148.5
315.65 K, x1 = 0.371 | 797.359 | 1129.3
315.65 K, x1 = 0.463 | 785.32 | 1105
315.65 K, x1 = 0.61 | 766.457 | 1065.8
315.65 K, x1 = 0.688 | 756.499 | 1044.9
315.65 K, x1 = 0.797 | 742.532 | 1015.6
315.65 K, x1 = 0.902 | 729.096 | 986.8
315.65 K, x1 = 0.943 | 723.661 | 974.25
315.65 K, x1 = 1 | 715.636 | 956.8
318.15 K, x1 = 0.053 | 836.384 | 1203.4
318.15 K, x1 = 0.116 | 828.127 | 1185.8
318.15 K, x1 = 0.199 | 817.267 | 1164.7
318.15 K, x1 = 0.301 | 803.893 | 1137.8
318.15 K, x1 = 0.371 | 794.887 | 1118.5
318.15 K, x1 = 0.463 | 782.821 | 1094.2
318.15 K, x1 = 0.61 | 763.899 | 1054.8
318.15 K, x1 = 0.688 | 753.908 | 1033.8
318.15 K, x1 = 0.797 | 739.897 | 1004.6
318.15 K, x1 = 0.902 | 726.409 | 975.59
318.15 K, x1 = 0.943 | 720.958 | 963
318.15 K, x1 = 1 | 712.897 | 945.54
320.65 K, x1 = 0.053 | 834.008 | 1192.9
320.65 K, x1 = 0.116 | 825.73 | 1175.2
320.65 K, x1 = 0.199 | 814.847 | 1154.1
320.65 K, x1 = 0.301 | 801.438 | 1127
320.65 K, x1 = 0.371 | 792.407 | 1107.7
320.65 K, x1 = 0.463 | 780.31 | 1083.4
320.65 K, x1 = 0.61 | 761.327 | 1043.8
320.65 K, x1 = 0.688 | 751.303 | 1022.8
320.65 K, x1 = 0.797 | 737.246 | 993.5
320.65 K, x1 = 0.902 | 723.713 | 964.4
320.65 K, x1 = 0.943 | 718.237 | 951.77
320.65 K, x1 = 1 | 710.141 | 934.24
323.15 K, x1 = 0.053 | 831.624 | 1182.4
323.15 K, x1 = 0.116 | 823.329 | 1164.6
323.15 K, x1 = 0.199 | 812.42 | 1143.5
323.15 K, x1 = 0.301 | 798.979 | 1116.4
323.15 K, x1 = 0.371 | 789.92 | 1097
323.15 K, x1 = 0.463 | 777.787 | 1072.5
323.15 K, x1 = 0.61 | 758.745 | 1032.9
323.15 K, x1 = 0.688 | 748.686 | 1011.9
323.15 K, x1 = 0.797 | 734.592 | 982.48
323.15 K, x1 = 0.902 | 721 | 953.28
323.15 K, x1 = 0.943 | 715.503 | 940.59
323.15 K, x1 = 1 | 707.381 | 922.97
